# According to patent US20060046972A1, “Cytotoxic nucleoside analog compound 003 for treating cancer” (Parker Hughes Institute, priority 2004, published 2006):
# Tested on: human T leukemia/lymphoma (JURKAT)
# Assay: DNA flow cytometry of cell cycle arrest, JURKAT
# Assay type: cell-based
# Details: 100 μM, 48 hour
# Protocol: Exponentially growing tumor cells were cultured at 1×10^6 cells/ml in clonogenic medium (RPMI 1640 medium +1% penicillin/streptomycin +10% heat-inactivated fetal bovine serum, 2 mML-glutamine, and 10 mM Hepes buffer) in the presence or absence of 100 μM compound 003 for 48 hour at 37° C., 5% CO2. At 48 h, cells were washed two times in fresh clonogenic medium, trypsinized, fixed in ice cold ethanol and labeled with propidium iodide to quantify their DNA content, as described previously (See, for example, Navara, et al., 2001, Anticancer Drugs. 12:369). Quantitative DNA analysis was performed on a Becton Dickenson Calibur flow cytometer equipped with a Consort 40 computer using the COTFIT program, which includes CELLCY, a cell cycle distribution function that fits DNA content histograms and calculates-the percentages of cells in G, S, and GM phases of the cell cycle, as described, for example, in Uckun et al., 1996, J Biol Chem. 271, 6389.
smiles,measurement,value
"COC(=O)C(C)NP(=O)(OCC1OC(n2cc(C)c(=O)[nH]c2=O)CC1N=[N+]=[N-])Oc1ccc(OC)cc1 (stereo not shown) [Compound 003, 3′-azidothymidine 5′-[p-methoxyphenylmethoxyalaninyl phosphate]]",cell cycle arrest,G2M cell cycle arrest
